The values below come from ChEMBL document CHEMBL2407038, “Cyclophilin inhibitors as antiviral agents” (Bioorg Med Chem Lett, 2013).

Square brackets hold non-standard residues; d marks the D form. Peptide text beside a SMILES is read from it. MeBmt = C/C=C/C[C@@H](C)[C@@H](O)[C@H](NC)C(=O)O; NEtVal = CCN[C@H](C(=O)O)C(C)C; NMeL = CN[C@@H](CC(C)C)C(=O)O; NMeV = CN[C@H](C(=O)O)C(C)C; dHiv = CC(C)[C@@H](O)C(=O)O; dNMeA = CN[C@H](C)C(=O)O; Abu = CC[C@H](N)C(=O)O

Test in all cases: microbe, parasite or virus in culture
Assay [1] relates to Human immunodeficiency virus 1. The settings on record: Human immunodeficiency virus 1, 3B, MT4, 96 h.
Description: Antiviral activity against HIV1 3B infected in human MT4 cells coinfected with HTLV1 assessed as reduction in virus-induced cytopathogenicity after 4 days by MTT assay
In assay [2] the test system is Human immunodeficiency virus 1. The settings on record: Human immunodeficiency virus 1, 3B, CEM-SS, 144 h.
Description: Antiviral activity against HIV1 3B infected in human CEM-SS cells assessed as reduction in virus-induced cytopathogenicity after 6 days by MTS assay
Assay [3] relates to Human immunodeficiency virus 1. Conditions: Human immunodeficiency virus 1, LAI, CEM-4.
Description: Antiviral activity against HIV1 LAI infected in human CEM4 cells assessed as inhibition of viral replication
Assay [4] has as its system Hepatitis C virus. Conditions: Huh-7.
Description: Antiviral activity against Hepatitis C virus infected in human Huh7ET cells by luciferase reporter gene assay
Assay [5] has as its system Hepatitis C virus. Conditions: Huh-7. The source holds these as a separate data set.
Description: Antiviral activity against Hepatitis C virus infected in human HuH7 cells by luciferase reporter gene assay
The test system of assay [6] is Hepatitis C virus. The settings on record: Huh-7, 72 h.
Description: Antiviral activity against Hepatitis C virus infected in human Huh7ET cells after 72 hrs by luciferase reporter gene assay
For assay [7], the system named is Hepatitis C virus.
Description: Antiviral activity against Hepatitis C virus
Assay [8] has as its system Hepatitis C virus. The settings on record: 16 h.
Description: Antiviral activity against Hepatitis C virus after 16 hrs by cell-based assay
Assay [9] has as its system Hepatitis C virus. The settings on record: genotype 2b.
Description: Antiviral activity against Hepatitis C virus genotype 2b infected in human Huh-9-13 cells after overnight incubation by MTT assay
In assay [10] the test system is Hepatitis C virus. The settings on record: Huh-5-2, 72 h.
Description: Antiviral activity against Hepatitis C virus infected in human HuH5.2 cells after 72 hrs by luciferase reporter gene assay
In assay [11] the test system is Human immunodeficiency virus 1. Conditions: Human immunodeficiency virus 1, 3B, MT4.
Description: Antiviral activity against HIV1 3B infected in human MT4 cells assessed as reduction in virus-induced cytopathogenicity after 5 to 6 days by MTT assay

One may read the EC50 as the concentration giving half of the maximal effect. A low value points to greater potency. In turn, `C/C=C/C[C@@H](C)[C@@H](O)[C@H]1C(=O)N[C@@H](CC)C(=O)N(C)CC(=O)N(C)[C@@H](CC(C)(C)O)C(=O)N[C@@H](C(C)C)C(=O)N(C)[C@@H](CC(C)C)C(=O)N[C@@H](C)C(=O)N[C@H](C)C(=O)N(C)[C@@H](CC(C)C)C(=O)N(C)[C@@H](CC(C)C)C(=O)N(C)[C@@H](C(C)C)C(=O)N1C` gave an EC50 in assay [1] of 279 nM. This counts as sub-micromolar.
Take `C/C=C/C[C@@H](C)[C@@H](O)[C@H]1C(=O)N[C@@H](CC)C(=O)N(C)CC(=O)N(C)[C@@H](C(C)C)C(=O)N[C@@H](C(C)C)C(=O)N(C)[C@@H](CC(C)C)C(=O)N[C@@H](C)C(=O)N[C@H](C)C(=O)N(C)[C@@H](CC(C)C)C(=O)N(C)[C@@H](CC(C)C)C(=O)N(C)[C@@H](C(C)C)C(=O)N1C`: the EC50 in assay [1] was 54 nM. This EC50 is about 5.2-fold lower than that of the compound before.
As a reminder, the IC50 is the concentration at which inhibition is half-maximal. Higher therefore signals lower potency. In assay [2], `C/C=C/C[C@@H](C)[C@@H](O)[C@H]1C(=O)N[C@@H](CC)C(=O)N(C)C(OC(C)=O)C(=O)N(C)[C@@H](CC(C)C)C(=O)N[C@@H](C(C)C)C(=O)N(C)[C@@H](CC(C)C)C(=O)N[C@@H](C)C(=O)N[C@H](C)C(=O)N(C)[C@@H](CC(C)C)C(=O)N(C)[C@@H](CC(C)C)C(=O)N(C)[C@@H](C(C)C)C(=O)N1C` (stereo partly specified) gave an IC50 of 119 nM.
On the same count and under the same terms, then `C/C=C/C[C@@H](C)[C@@H](OC(C)=O)[C@H]1C(=O)N[C@@H](CC)C(=O)N(C)C(OC(C)=O)C(=O)N(C)[C@@H](CC(C)C)C(=O)N[C@@H](C(C)C)C(=O)N(C)[C@@H](CC(C)C)C(=O)N[C@@H](C)C(=O)N[C@H](C)C(=O)N(C)[C@@H](CC(C)C)C(=O)N(C)[C@@H](CC(C)C)C(=O)N(C)[C@@H](C(C)C)C(=O)N1C` (stereo partly specified), with 115 nM.
On to `CC[C@@H]1NC(=O)[C@H]([C@H](O)[C@H](C)C/C=C/CO)N(C)C(=O)[C@H](C(C)C)N(C)C(=O)[C@H](CC(C)C)N(C)C(=O)[C@H](CC(C)C)N(C)C(=O)[C@@H](C)NC(=O)[C@H](C)NC(=O)[C@H](CC(C)C)N(C)C(=O)[C@H](C(C)C)NC(=O)[C@H](CC(C)C)N(C)C(=O)CN(C)C1=O`, for which it took 460 nM to reach a half-maximal effect in assay [1] (EC50).
On to `C/C=C/C[C@@H](C)[C@@H](O)[C@H]1C(=O)N[C@@H](CC)C(=O)N(C)[C@H](SCCN(CC)CC)C(=O)N(C)[C@@H](CC(C)C)C(=O)N[C@@H](C(C)C)C(=O)N(C)[C@@H](CC(C)C)C(=O)N[C@@H](C)C(=O)N[C@H](C)C(=O)N(C)[C@@H](CC(C)C)C(=O)N(C)[C@@H](CC(C)C)C(=O)N(C)[C@@H](C(C)C)C(=O)N1C`, for which the EC50 in assay [3] amounted to 2.5 nM. That is a single-digit nanomolar value.
With `C/C=C/C[C@@H](C)[C@@H](O)[C@H]1C(=O)N[C@@H](CC)C(=O)N(C)[C@@H](CSCCN2CCOCC2)C(=O)N(C)[C@@H](CC(C)(C)O)C(=O)N[C@@H](C(C)C)C(=O)N(C)[C@@H](CC(C)C)C(=O)N[C@@H](C)C(=O)N[C@H](C)C(=O)N(C)[C@@H](CC(C)C)C(=O)N(C)[C@@H](CC(C)C)C(=O)N(C)[C@@H](C(C)C)C(=O)N1C`, in assay [2], a half-maximal effect (EC50) was put at 94.9 nM.
Consider `C/C=C/C[C@@H](C)[C@@H](O)[C@H]1C(=O)N[C@@H](CC)C(=O)N(C)[C@H](OC)C(=O)N(C)[C@@H](CC(C)(C)O)C(=O)N[C@@H](C(C)C)C(=O)N(C)[C@@H](CC(C)C)C(=O)N[C@@H](C)C(=O)N[C@H](C)C(=O)N(C)[C@@H](CC(C)C)C(=O)N(C)[C@@H](CC(C)C)C(=O)N(C)[C@@H](C(C)C)C(=O)N1C`, for which the EC50 in assay [2] was 60 nM. This EC50 is about 1.6-fold lower than that of the compound before.
With `C/C=C/C[C@@H](C)[C@@H](O)[C@H]1C(=O)N[C@@H](CC)C(=O)N(C)CC(=O)N(C)[C@@H](CC(C)C)C(=O)N[C@@H](C(C)C)C(=O)N(C)[C@@H](CC(C)C)C(=O)N[C@@H](C)C(=O)N[C@H](C)C(=O)N(C)[C@@H](CC(C)(C)O)C(=O)N(C)[C@@H](CC(C)C)C(=O)N(C)[C@@H](C(C)C)C(=O)N1C`, the midpoint of the response in assay [1], the EC50, lay at 255 nM.
In the assay with Hepatitis C virus [4], `C/C=C/C[C@@H](C)[C@@H](O)[C@H]1C(=O)N[C@@H](CC)C(=O)N(C)[C@H](SCCCN2CCOCC2)C(=O)N(C)[C@@H](CC(C)(C)O)C(=O)N[C@@H](C(C)C)C(=O)N(C)[C@@H](CC(C)C)C(=O)N[C@@H](C)C(=O)N[C@H](C)C(=O)N(C)[C@@H](CC(C)C)C(=O)N(C)[C@@H](CC(C)C)C(=O)N(C)[C@@H](C(C)C)C(=O)N1C` registered a 50% effective concentration (EC50) of 40 nM. This counts as double-digit nanomolar.
On to `C/C=C/C[C@@H](C)[C@@H](O)[C@H]1C(=O)N[C@@H](CC)C(=O)N(C)[C@@H](CSCCCN2CCOCC2)C(=O)N(C)[C@@H](CC(C)(C)O)C(=O)N[C@@H](C(C)C)C(=O)N(C)[C@@H](CC(C)C)C(=O)N[C@@H](C)C(=O)N[C@H](C)C(=O)N(C)[C@@H](CC(C)C)C(=O)N(C)[C@@H](CC(C)C)C(=O)N(C)[C@@H](C(C)C)C(=O)N1C`, for which the EC50 in the assay with Hepatitis C virus [5] came to 20 nM.
`C/C=C/C[C@@H](C)[C@@H](O)[C@H]1C(=O)N[C@@H](CC)C(=O)N(C)CC(=O)N(C)[C@@H](CC(C)(C)OCc2ccccc2)C(=O)N[C@@H](C(C)C)C(=O)N(C)[C@@H](CC(C)C)C(=O)N[C@@H](C)C(=O)N[C@H](C)C(=O)N(C)[C@@H](CC(C)C)C(=O)N(C)[C@@H](CC(C)C)C(=O)N(C)[C@@H](C(C)C)C(=O)N1C` displayed an EC50 in the assay with Hepatitis C virus [6] of 410 nM.
In turn, `C/C=C/C[C@@H](C)[C@@H](O)[C@H]1C(=O)N[C@@H](CC)C(=O)N[C@H](C)C(=O)N(C)[C@@H](CC(C)C)C(=O)N(C/C=C(\C)CO)[C@@H](C(C)C)C(=O)N(C)[C@@H](CC(C)C)C(=O)N[C@@H](C)C(=O)N[C@H](C)C(=O)N(C)[C@@H](CC(C)C)C(=O)N(C)[C@@H](CC(C)C)C(=O)N(C)[C@@H](C(C)C)C(=O)N1C` yielded an EC50 in the assay on Hepatitis C virus [7] of 50 nM.
For `C/C=C/C[C@@H](C)[C@@H](O)[C@H]1C(=O)N[C@@H]([C@@H](C)O)C(=O)N(C)CC(=O)N(C)[C@@H](CC(C)C)C(=O)N[C@@H](C(C)C)C(=O)N(C)[C@@H](CC(C)C)C(=O)N[C@@H](C)C(=O)N[C@H](C)C(=O)N(C)[C@@H](CC(C)CO)C(=O)N(C)[C@@H](CC(C)C)C(=O)N(C)[C@@H](C(C)C)C(=O)N1C` (stereo partly specified), in the assay on Hepatitis C virus [8], the EC50 was less than 3000 nM.
Consider `C/C=C/C[C@@H](C)[C@@H](O)[C@H]1C(=O)N[C@@H](CC)C(=O)N(C)[C@H](C)C(=O)N(CC)[C@@H](C(C)C)C(=O)N[C@@H](CC(C)C)C(=O)N(C)[C@@H](CC(C)C)C(=O)N[C@@H](C)C(=O)O[C@H](C(C)C)C(=O)N(C)[C@@H](CC(C)C)C(=O)N[C@@H](CC(C)C)C(=O)N(C)[C@@H](C(C)C)C(=O)N1C` (cyclo(A[dHiv][NMeL]L[NMeV][MeBmt][Abu][dNMeA][NEtVal]L[NMeL])), for which, in the assay on Hepatitis C virus [9], the EC50 was determined as 37 nM. In other words, the double-digit nanomolar range.
Turning to `C/C=C/C[C@@H](C)[C@@H](O)[C@H]1C(=O)N[C@@H](CC)C(=O)N(C)[C@H](C)C(=O)N(CC)[C@@H](C(C)C)C(=O)N[C@@H](C(C)C)C(=O)N(C)[C@@H](CC(C)C)C(=O)N[C@@H](C)C(=O)N[C@H](C)C(=O)N(C)[C@@H](CC(C)C)C(=O)N(C)[C@@H](CC(C)C)C(=O)N(C)[C@@H](C(C)C)C(=O)N1C` [ALISPORIVIR], the EC50 turned out to be 25 nM in the assay with Hepatitis C virus [10] and 63 nM in assay [11].
`C/C=C/C[C@@H](C)[C@@H](O)[C@H]1C(=O)N[C@@H](CC)C(=O)N(C)CC(=O)N(C)[C@@H](CC(C)C)C(=O)N[C@@H](C(C)C)C(=O)N(C)[C@@H](CC(C)C)C(=O)N[C@@H](C)C(=O)N[C@H](C)C(=O)N(C)[C@@H](CC(C)C)C(=O)N(C)[C@@H](CC(C)C)C(=O)N(C)[C@@H](C(C)C)C(=O)N1C` [CYCLOSPORINE]: the EC50 in the assay with Hepatitis C virus [7] stood at 230 nM; in assay [1] it was 450 nM.
In assay [1], `C/C=C/C[C@@H](C)[C@@H](O)[C@H]1C(=O)N[C@@H](CC)C(=O)N(C)CC(=O)N(C)[C@@H]([C@@H](C)CC)C(=O)N[C@@H](C(C)C)C(=O)N(C)[C@@H](CC(C)C)C(=O)N[C@@H](C)C(=O)N[C@H](C)C(=O)N(C)[C@@H](CC(C)C)C(=O)N(C)[C@@H](CC(C)C)C(=O)N(C)[C@@H](C(C)C)C(=O)N1C` [NIM811] gave an EC50 of 47 nM. That is a double-digit nanomolar value.
Compound `C/C=C/C[C@@H](C)[C@@H](O)[C@H]1C(=O)N[C@@H](CC)C(=O)N(C)[C@H](SCCN(C)C)C(=O)N(C)[C@@H](CC(C)(C)O)C(=O)N[C@@H](C(C)C)C(=O)N(C)[C@@H](CC(C)C)C(=O)N[C@@H](C)C(=O)N[C@H](C)C(=O)N(C)[C@@H](CC(C)C)C(=O)N(C)[C@@H](CC(C)C)C(=O)N(C)[C@@H](C(C)C)C(=O)N1C` [SCY 635] registered an EC50 in assay [3] of 45 nM.
